Reference: ChEMBL document CHEMBL4825686, “HTS-based discovery and optimization of novel positive allosteric modulators of the α7 nicotinic acetylcholine receptor” (Eur J Med Chem, 2021)
The source made the active and inactive calls. No cut-off for these calls is given here.

Experiments:
[1] = Lipophilicity, logP of the compound; format: physicochemical; conditions: octanol/water
[2] = Mutagenicity in Salmonella typhimurium TA100 in presence of rat liver S9 fraction by AMES test; format: toxicity, subcellular; conditions: salmonella enterica subsp. enterica serovar typhimurium
[3] = target: Sigma non-opioid intracellular receptor 1 (Homo sapiens) (UniProt Q99720); assay: Binding affinity to human recombinant sigma-1 receptor assessed as displacement of radioligand at 10 uM by displacement binding assay
Sigma non-opioid intracellular receptor 1 (Homo sapiens), sequence (Q99720 whole entry): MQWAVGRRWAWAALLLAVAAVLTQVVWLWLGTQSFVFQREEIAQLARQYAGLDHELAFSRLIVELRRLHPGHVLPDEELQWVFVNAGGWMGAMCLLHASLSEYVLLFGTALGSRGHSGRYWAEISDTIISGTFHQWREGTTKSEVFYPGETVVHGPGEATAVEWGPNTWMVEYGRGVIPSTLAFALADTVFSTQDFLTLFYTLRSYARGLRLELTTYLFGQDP

[4] = target: 5-hydroxytryptamine receptor 2B (Homo sapiens) (UniProt P41595); assay: Binding affinity to human recombinant 5-HT2B receptor assessed as displacement of radioligand at 10 uM by displacement binding assay
5-hydroxytryptamine receptor 2B (Homo sapiens), sequence (P41595 whole entry): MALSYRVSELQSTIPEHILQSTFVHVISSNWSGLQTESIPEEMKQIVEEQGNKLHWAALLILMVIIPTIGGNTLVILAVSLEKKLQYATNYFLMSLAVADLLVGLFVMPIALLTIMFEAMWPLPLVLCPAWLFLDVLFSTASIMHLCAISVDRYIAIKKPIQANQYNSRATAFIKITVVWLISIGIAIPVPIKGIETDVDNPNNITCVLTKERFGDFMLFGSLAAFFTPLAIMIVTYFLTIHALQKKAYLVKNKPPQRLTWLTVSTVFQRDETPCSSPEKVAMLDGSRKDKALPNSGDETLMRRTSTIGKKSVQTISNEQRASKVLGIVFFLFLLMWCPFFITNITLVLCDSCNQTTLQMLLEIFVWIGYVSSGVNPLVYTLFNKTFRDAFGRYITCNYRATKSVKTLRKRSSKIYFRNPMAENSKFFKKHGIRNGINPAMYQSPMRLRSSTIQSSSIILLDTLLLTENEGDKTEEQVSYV

[5] = Metabolic stability in NMRI mouse liver microsomes assessed as intrinsic clearance at 1 uM measured per mg protein upto 40 mins; format: ADME, Microsome; conditions: read-out: CLH
[6] = target: GABA-A receptor; alpha-5/beta-3/gamma-2 (Homo sapiens) (UniProt P18507+P28472+P31644); assay: Inhibition of human alpha5beta3gamma2 GABAA receptor expressed in HEK293 cells assessed as inhibition of GABA induced channel current response at 1 to 10 uM measured after 7 to 10 mins at -80 mV holding potential by whole-cell patch clamp assay; format: cell-based; conditions: dose 1-10 µM, time 7-10 min
[7] = Plasma concentration in Wistar rat at 10 mg/kg, ip measured after 35 mins by HPLC-MS/MS analysis; format: ADME, organism-based
[8] = Ratio of drug level in Wistar rat brain to plasma at 10 mg/kg, ip measured after 35 mins by HPLC-MS/MS analysis; format: ADME, organism-based; conditions: read-out: BPR
[9] = Ratio of drug level in NMRI mouse brain to plasma at 10 mg/kg, ip measured after 1 hr by HPLC-MS/MS analysis; format: ADME, organism-based; conditions: read-out: BPR
[10] = Drug uptake in NMRI mouse brain at 0.1 mg/kg, ip measured after 1 hr by HPLC-MS/MS analysis; format: ADME, organism-based; conditions: read-out: Ct
[11] = Drug uptake in Wistar rat brain at 10 mg/kg, ip measured after 35 mins by HPLC-MS/MS analysis; format: ADME, organism-based; conditions: read-out: Ct
[12] = Mutagenicity in Escherichia coli WP2 uvrA in absence of rat liver S9 fraction by AMES test; format: toxicity
[13] = Drug uptake in NMRI mouse brain at 0.3 mg/kg, ip measured after 1 hr by HPLC-MS/MS analysis; format: ADME, organism-based; conditions: read-out: Ct
[14] = target: GABA-A receptor; alpha-1/beta-3/gamma-2 (Homo sapiens) (UniProt P14867+P18507+P28472); assay: Activation of human alpha1beta3gamma2 GABAA receptor expressed in HEK293 cells assessed as enhancement of GABA induced channel current response at 1 to 10 uM measured after 7 to 10 mins at -80 mV holding potential by whole-cell patch clamp assay; format: cell-based; conditions: dose 1-10 µM, time 7-10 min
[15] = target: T1, Neuronal acetylcholine receptor subunit alpha-7 (Homo sapiens, UniProt P36544); assay: Positive allosteric modulation of human alpha7 nAChR expressed in HEK293 cells assessed as inhibition of choline-evoked current desensitization measured after 6 to 10 mins at -80 mV holding potential by automated whole cell patch clamp analysis; format: cell-based; conditions: filed as positive allosteric modulator, time 6-10 min
T1 sequence (P36544 whole entry): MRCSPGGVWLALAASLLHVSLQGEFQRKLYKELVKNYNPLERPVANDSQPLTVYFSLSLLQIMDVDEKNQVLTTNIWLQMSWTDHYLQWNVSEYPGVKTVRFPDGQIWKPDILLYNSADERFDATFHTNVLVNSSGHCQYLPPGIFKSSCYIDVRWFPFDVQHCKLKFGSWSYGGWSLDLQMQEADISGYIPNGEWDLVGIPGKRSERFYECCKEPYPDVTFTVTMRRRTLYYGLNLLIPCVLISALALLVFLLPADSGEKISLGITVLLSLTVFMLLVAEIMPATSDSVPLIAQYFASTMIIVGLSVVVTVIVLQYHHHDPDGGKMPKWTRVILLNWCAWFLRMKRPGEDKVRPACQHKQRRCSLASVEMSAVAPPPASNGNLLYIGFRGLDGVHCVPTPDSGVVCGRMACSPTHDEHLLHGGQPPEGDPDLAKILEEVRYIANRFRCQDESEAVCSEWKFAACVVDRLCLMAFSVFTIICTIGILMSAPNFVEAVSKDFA

[16] = Ratio of drug level in NMRI mouse brain to plasma at 0.3 mg/kg, ip measured after 1 hr by HPLC-MS/MS analysis; format: ADME, organism-based; conditions: read-out: BPR
Mus musculus = assay: Cognitive enhancing effect in scopolamine-induced amnesia NMRI mouse model assessed as increase in recognition index at 1 to 10 mg/kg, ip administered 30 mins prior to scopolamine injection by Y-maze test; format: functional, organism-based; conditions: dose 1-10 mg/kg
[17] = target: Neuronal acetylcholine receptor; alpha3/beta4 (Homo sapiens) (UniProt P30926+P32297); assay: Agonist activity at alpha3beta4 nAChR (unknown origin) upto 30 uM by automated Q-patch clamp assay; conditions: dose microM <=30
[18] = Ratio of drug level in Wistar rat brain to plasma at 3 mg/kg, ip measured after 35 mins by HPLC-MS/MS analysis; format: ADME, organism-based; conditions: read-out: BPR
[19] = target: Glutamate NMDA receptor (Rattus norvegicus) (UniProt P35439+Q00959+Q00960+Q00961+Q62645+Q8VHN2+Q9R1M7); assay: Displacement of [3H]CGP39653 from NMDA receptor in Wistar rat cerebral cortex at 10 uM by displacement binding assay; format: tissue-based
[20] = Mutagenicity in Salmonella typhimurium TA100 in absence of rat liver S9 fraction by AMES test; format: toxicity; conditions: salmonella enterica subsp. enterica serovar typhimurium
[21] = Drug uptake in NMRI mouse brain at 10 mg/kg, ip measured after 1 hr by HPLC-MS/MS analysis; format: ADME, organism-based; conditions: read-out: Ct
[22] = Mutagenicity in Salmonella typhimurium TA98 in absence of rat liver S9 fraction by AMES test; format: toxicity; conditions: salmonella enterica subsp. enterica serovar typhimurium
[23] = target: GABA-A receptor; anion channel (Rattus norvegicus) (UniProt O09028+P15431+P18506+P18508+P19969+P20236+P23574+P23576+P28471+P28473+P30191+P62813+P63079+P63138+Q91ZM7+Q9ES14); assay: Displacement of [3H]muscimol from GABAA receptor in Wistar rat brain without cerebellum at 10 uM by displacement binding assay; format: tissue-based
[24] = target: T1, Neuronal acetylcholine receptor subunit alpha-7; assay: Positive allosteric modulation of human alpha7 nAChR expressed in HEK293 cells assessed as increase in peak current amplitude measured after 6 to 10 mins at -80 mV holding potential by automated whole cell patch clamp analysis; format: cell-based
[25] = Metabolic stability in Wistar rat liver microsomes assessed as intrinsic clearance at 1 uM measured per mg protein upto 40 mins; format: ADME, Microsome; conditions: read-out: CLH
[26] = Mutagenicity in Escherichia coli WP2 uvrA in presence of rat liver S9 fraction by AMES test; format: toxicity, subcellular
[27] = Plasma concentration in NMRI mouse at 3 mg/kg, ip measured after 1 hr by HPLC-MS/MS analysis; format: ADME, organism-based
[28] = Drug uptake in Wistar rat brain at 3 mg/kg, ip measured after 35 mins by HPLC-MS/MS analysis; format: ADME, organism-based; conditions: read-out: Ct
[29] = target: T2, 5-hydroxytryptamine receptor 3A (Homo sapiens) (UniProt P46098); assay: Displacement of [3H]GR65630 from human 5-HT3 receptor expressed in HEK293 cells at 10 uM by displacement binding assay; format: cell-based
T2 sequence (whole entry): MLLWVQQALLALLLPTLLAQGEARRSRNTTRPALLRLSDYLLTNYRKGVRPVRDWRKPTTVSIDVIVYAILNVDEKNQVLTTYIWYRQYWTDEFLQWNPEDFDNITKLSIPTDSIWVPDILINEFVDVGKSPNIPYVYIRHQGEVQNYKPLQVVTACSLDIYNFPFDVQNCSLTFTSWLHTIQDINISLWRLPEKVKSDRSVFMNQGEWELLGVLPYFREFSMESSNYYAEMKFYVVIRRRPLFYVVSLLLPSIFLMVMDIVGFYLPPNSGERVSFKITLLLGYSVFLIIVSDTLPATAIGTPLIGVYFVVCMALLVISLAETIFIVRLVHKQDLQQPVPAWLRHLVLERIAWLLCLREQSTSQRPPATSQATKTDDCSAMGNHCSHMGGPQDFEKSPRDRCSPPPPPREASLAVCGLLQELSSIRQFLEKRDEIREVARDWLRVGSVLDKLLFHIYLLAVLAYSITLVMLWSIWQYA

logP [1]: 3.7
inhibition [3]: 55%
inhibition [4]: 98%
microsomal CLint at 1 µM [5]: 55 µL/min/mg
inhibition [6]: < 7%
concentration at 35 min [7]: 196 nM
Kp at 35 min [8]: 4.01
Kp at 1 h [9]: 1.67
concentration at 1 h [10]: 3.1 nM
concentration at 35 min [11]: 657 nM
concentration at 1 h [13]: 5.5 nM
Activity [14]: < 7%
Kp at 1 h [16]: 1.22
Activity [17]: inactive
Kp at 35 min [18]: 3.8
inhibition [19]: < 15%
concentration at 1 h [21]: 233 nM
inhibition [23]: < 15%
EC50 [24]: 710 nM
microsomal CLint at 1 µM [25]: 158 µL/min/mg
concentration at 1 h [27]: 37 nM
concentration at 35 min [28]: 207 nM
inhibition [29]: < 15%
Compound: Cc1ccc(CN2CCN(C(=O)C(=O)Nc3ccc4c(ccn4C)c3)CC2)cc1
Activity [2]: Non-Toxic
Activity [12]: Non-Toxic
Activity [15]: Active
Activity (Mus musculus): Active
Activity [20]: Non-Toxic
Activity [22]: Non-Toxic
Activity [26]: Non-Toxic
